Test results: the NIST ThermoML archive (doi:10.1021/je900596d)

Conditions: 263.49 K, Liquid, Vibrating tube method

FC(F)=C(F)C(F)(F)F [hexafluoropropene]
Conditions	mass density [kg/m3]
1283.2 kPa	1467.96
1321.2 kPa	1468.22
1359 kPa	1468.47
1389.9 kPa	1468.56
1425.3 kPa	1468.74
1461.6 kPa	1468.94
1497.9 kPa	1469.16
1539.1 kPa	1469.32
1576.4 kPa	1469.48
1610 kPa	1469.68
1646.8 kPa	1469.96
1683.2 kPa	1470.1
1718.2 kPa	1470.09
1769.7 kPa	1470.55
1804.7 kPa	1470.64
1839 kPa	1470.88
1873.5 kPa	1471.02
1912.3 kPa	1471.22
1948.3 kPa	1471.32
1983.7 kPa	1471.42
2017.6 kPa	1471.69
2077.4 kPa	1472.02
2137.9 kPa	1472.31
2195.3 kPa	1472.62
2252 kPa	1472.79
2309.6 kPa	1473.18
2367.3 kPa	1473.43
2430.6 kPa	1473.71
2489.1 kPa	1474.06
2551.6 kPa	1474.23
2614.8 kPa	1474.71
2675.4 kPa	1474.88
2733.4 kPa	1475.13
2790.5 kPa	1475.34
2848.5 kPa	1475.67
2905.6 kPa	1475.93
2969.6 kPa	1476.29
3029.8 kPa	1476.52
3093.3 kPa	1476.76
3152.2 kPa	1477.08
3211.2 kPa	1477.32
3270.4 kPa	1477.64
3327.3 kPa	1477.91
3384.6 kPa	1478.13
3443.8 kPa	1478.55
3501.1 kPa	1478.67
3558.2 kPa	1479.03
3616.7 kPa	1479.25
3674.3 kPa	1479.49
3737.9 kPa	1479.79
3796.5 kPa	1480.12
3856.1 kPa	1480.36
3913.3 kPa	1480.59
3976.1 kPa	1480.92
4010.9 kPa	1481.02
4071.8 kPa	1481.39
4136 kPa	1481.55
4197.2 kPa	1481.92
4261.2 kPa	1482.25
4322.1 kPa	1482.4
4382.2 kPa	1482.79
4447.1 kPa	1482.98
4507.5 kPa	1483.36
4568.4 kPa	1483.61
4635.4 kPa	1483.93
4696.7 kPa	1484.25
4757 kPa	1484.43
4816.4 kPa	1484.73
4881.5 kPa	1484.9
4946.3 kPa	1485.39
5104.8 kPa	1485.97
5190.1 kPa	1486.45
5273.8 kPa	1486.72
5369.3 kPa	1487.1
5456.3 kPa	1487.53
5538.4 kPa	1487.84
5622.6 kPa	1488.18
5711.1 kPa	1488.61
5793.3 kPa	1489.06
5877.9 kPa	1489.31
5963.2 kPa	1489.67
6047.6 kPa	1490.11
6129.9 kPa	1490.42
6210.8 kPa	1490.7
6292.4 kPa	1491.15
6372.6 kPa	1491.45
6452.8 kPa	1491.79
6538.6 kPa	1492.18
6628.4 kPa	1492.5
6710.5 kPa	1492.84
6798.1 kPa	1493.29
6878.8 kPa	1493.62
6965.4 kPa	1493.98
7052.5 kPa	1494.32
7137.8 kPa	1494.61
7224.6 kPa	1495
7315.1 kPa	1495.44
7400.9 kPa	1495.77
7483.2 kPa	1496.09
7573.2 kPa	1496.53
7663 kPa	1496.86
7746.1 kPa	1497.24
7835.3 kPa	1497.57
7920.3 kPa	1497.86
8008.2 kPa	1498.24
8089.2 kPa	1498.57
8180.4 kPa	1498.95
8262.3 kPa	1499.34
8343 kPa	1499.65
8431 kPa	1499.96
8519.4 kPa	1500.29
8604.9 kPa	1500.75
8687 kPa	1500.96
8773.6 kPa	1501.36
8859.6 kPa	1501.69
8940.8 kPa	1502.04
9033.4 kPa	1502.38
9121.4 kPa	1502.79
9202.4 kPa	1503.09
9288.6 kPa	1503.44
9371.7 kPa	1503.79
9460.9 kPa	1504.15
9501.4 kPa	1504.21
9543.4 kPa	1504.4
9588.9 kPa	1504.56
9629.7 kPa	1504.74
9675.2 kPa	1504.91
9717.5 kPa	1505.02
9760.3 kPa	1505.19
9806 kPa	1505.39
9849.5 kPa	1505.65
9893.1 kPa	1505.74
9933.7 kPa	1505.89
